In publication PMC4445981, “The glutamate transport inhibitor DL-Threo-β-Benzyloxyaspartic acid (DL-TBOA) differentially affects SN38- and oxaliplatin-induced death of drug-resistant colorectal cancer cells” (BMC Cancer, 2015):

How the values were obtained:
Format in all cases: cell-based, human
[1] = tested on: SLC1A1 localization in HCT116 cells; assay: Immunofluorescence analysis of SLC1A1 subcellular localization; details: 48 h
Procedure: Immunofluorescence analysis was carried out essentially as in [47]. Cells grown on glass coverslips were fixed in 2 % paraformaldehyde, washed in TBST, permeabilized for 5 min (0.5 % Triton X-100 in TBST), blocked for 30 min in 5 % BSA in TBST, incubated with SLC1A1 primary antibody in TBST + 1 % BSA overnight at 4 °C, washed in TBST, and with Rhodamine-phalloidin and AlexaFluor488 conjugated secondary antibody (1:600 in TBS + 1 % BSA) for 1 h, followed by washing in TBST, and mounting in N-propyl-galleate mounting medium (2 % w/v in PBS/glycerol). DAPI was added for 3 min following incubation with the secondary antibody. Cells were visualized using the 60X/1.35 NA objective of an Olympus Bx63 epifluorescence microscope. […] Overlays were carried out using Adobe Photoshop software. No other image adjustment was performed.

[2] = tested on: CTR1; assay: CTR1 protein level by Western blotting; details: 24 h
Procedure: Fig. 3 Effect of acute DL-TBOA and chemotherapy treatment on CTR1 protein level. Parental and drug-resistant HCT116 (a) and LoVo (b) cell lines were exposed to SN38 (0.8 μM) or oxaliplatin (20 μM), alone or in combination with 350 μM DL-TBOA as indicated for 24 h. Equal amounts of protein per lane were separated by SDS-PAGE and the protein levels of CTR1 were determined by Western blotting. Top: Representative Western blots (tubulin serves as a loading control), bottom: Densitometric quantification data summarized from 3 independent experiments per condition. Quantitative data are means with S.E.M. error bars of 3 independent experiments. *) p < 0.05, **) p < 0.01, ***) p < 0.001 compared to the control group without drug or TBOA treatment. Two-way ANOVA with Tukey post-test
Cells were grown to a confluence of 60-80 % and treated with chemotherapy, siRNA- or plasmid transfection as indicated. Cells were washed once in PBS, lysed in lysis buffer (1 % SDS, 0.1 M Tris pH 7.5, and 1 mM Na3VO4), sonicated, and protein content determined (DC assay, BioRad). Lysates were mixed 2:1with NuPage LDS sample buffer (Invitrogen). SDS-PAGE was carried out in NOVEX chambers with NuPAGE 10 % Bis-Tris gels under reducing and denaturing conditions, using BenchMark protein ladder (Invitrogen), and 15 μg protein per lane. […] Bands were scanned and quantified using UN-SCAN-IT (Silk Scientific).

[3] = tested on: p21^WAF1/Cip (p21); assay: p21 protein level by Western blotting; details: for p21 protein level: 24 h, 0.8 μM SN38 or 20 μM oxaliplatin
Procedure: (§1) Cells were grown to a confluence of 60-80 % and treated with chemotherapy, siRNA- or plasmid transfection as indicated. Cells were washed once in PBS, lysed in lysis buffer (1 % SDS, 0.1 M Tris pH 7.5, and 1 mM Na3VO4), sonicated, and protein content determined (DC assay, BioRad). Lysates were mixed 2:1with NuPage LDS sample buffer (Invitrogen). SDS-PAGE was carried out in NOVEX chambers with NuPAGE 10 % Bis-Tris gels under reducing and denaturing conditions, using BenchMark protein ladder (Invitrogen), and 15 μg protein per lane. Proteins were transferred to PVDF membranes, which were Ponceau S stained, blocked for 1 h at 37 °C in 5 % nonfat dry milk in TBST (0.01 M Tris/HCl, 0.15 M NaCl, 0.1 % Tween 20, pH 7.4), incubated overnight at 4 °C with primary antibodies diluted in blocking buffer, washed in TBST, incubated with secondary antibodies for 1 h, washed in TBST, and developed using BCIP/NBT (KPL). Bands were scanned and quantified using UN-SCAN-IT (Silk Scientific).
Supplementary file 12885_2015_1405_MOESM3_ESM.tiff: Additional file 3: Figure S3. Effects of DL-TBOA on cell death and survival parameters after chemotherapy treatment of HCT116 cells. Parental and drug-resistant HCT116 cell lines seeded in 6-well dishes were exposed to SN38 (0.8 μM) or oxaliplatin (20 μM), alone or in combination with 350 μM DL-TBOA as indicated, for 24 h. Equal amounts of protein per lane were separated by SDS-PAGE and the protein levels of p21, and PARP-1 (full-length and cleaved, the latter indicated by arrowheads) were determined by Western blotting. Top: Representative Western blots, with p150 as loading control. Bottom: Densitometric quantifications based on 3 independent experiments per condition. Data are means with S.E.M. error bars of 3 independent experiments. *) p < 0.05, **) p < 0.01, ***) p < 0.001,****) p < 0.0001 compared to the control group without drug or TBOA treatment; #) p < 0.05 compared to controls without TBOA treatment. Two-way ANOVA with Tukey post-test.

[4] = tested on: p53; assay: p53 protein level by Western blotting; details: 24 h; for p53 protein level: 0.8 μM SN38 or 20 μM oxaliplatin
Procedure: Fig. 5 Effects of DL-TBOA on cell death and survival parameters after chemotherapy treatment. Parental and drug-resistant HCT116 (a) and LoVo (b) cell lines were exposed to SN38 (0.8 μM) or oxaliplatin (20 μM), alone or in combination with 350 μM DL-TBOA as indicated, for 24 h. Equal amounts of protein per lane were separated by SDS-PAGE and the protein level of p53 was determined by Western blotting. Top: Representative Western blots, with p150 as loading control. Bottom: Densitometric quantifications based on 3 independent experiments per condition. Data are means with S.E.M. error bars of 3 independent experiments. *) p < 0.05, **) p < 0.01, ***) p < 0.001,****) p < 0.0001 compared to the control group without drug or TBOA treatment; Two-way ANOVA with Tukey post-test
as §1

Row | SMILES | SLC1A1 subcellular localization ([1]; parental HCT116 cells, 0.8 μM SN38 or 20 μM oxaliplatin) | effect on CTR1 protein expression ([2]; 20 μM oxaliplatin, all cell lines except parental HCT116, HCT116-Oxa, LoVo-Oxa) | p21 protein level ([3]; SN38-resistant HCT116 cells) | p21 protein level ([3]; parental HCT116 cells) | p53 protein level ([4]; SN38-resistant HCT116 cells) | p53 protein level ([4]; parental HCT116 cells) | effect on SLC1A1 localization ([1]; SN38-resistant HCT116 cells, 350 μM DL-TBOA added to chemotherapeutic treatment) | effect on intracellular SLC1A1 localization ([1]; oxaliplatin-resistant HCT116 cells, control and oxaliplatin-treated, 350 μM DL-TBOA) | effect on SLC1A1 localization ([1]; parental HCT116 cells, 350 μM DL-TBOA alone or with chemotherapeutic agents) | effect on CTR1 protein level ([2]; 350 μM DL-TBOA +/- SN38 (0.8 μM) or oxaliplatin (20 μM), HCT116 and LoVo lines) | effect on cellular level of p21 ([3]; DL-TBOA, HCT116 and LoVo cells) | effect on chemotherapy-induced p53 induction ([4]; 350 μM DL-TBOA concomitant to SN38 or oxaliplatin, parental and drug-resistant HCT116 and LoVo)
1 | O=C(O)C(=O)O.[NH-][C@@H]1CCCC[C@H]1[NH-].[Pt+2] [oxaliplatin] | marked shift in SLC1A1 localization towards the perinuclear/nuclear region | tended to reduce CTR1 protein expression | retained | markedly induced | retained | markedly induced | – | – | – | – | – | –
2 | N[C@H](C(=O)O)[C@H](OCc1ccccc1)C(=O)O (racemic) [TBOA, DL-Threo-β-Benzyloxyaspartic acid] | – | – | – | – | – | – | increased the fraction of SLC1A1 fluorescence localized to the perinuclear/nuclear compartment | partially reversed | no detectable effect on SLC1A1 localization | without detectable effects | did not significantly alter | apparent decrease in p53 induction
